Experimental data as given in ChEMBL document CHEMBL1141131, “A selective estrogen receptor modulator designed for the treatment of uterine leiomyoma with unique tissue specificity for uterus and ovaries in rats” (J Med Chem, 2005).

Key:
Estrogen receptor [1] = molecular target: T1, Estrogen receptor (Rattus norvegicus, UniProt P06211)
T1 sequence (P06211 whole entry): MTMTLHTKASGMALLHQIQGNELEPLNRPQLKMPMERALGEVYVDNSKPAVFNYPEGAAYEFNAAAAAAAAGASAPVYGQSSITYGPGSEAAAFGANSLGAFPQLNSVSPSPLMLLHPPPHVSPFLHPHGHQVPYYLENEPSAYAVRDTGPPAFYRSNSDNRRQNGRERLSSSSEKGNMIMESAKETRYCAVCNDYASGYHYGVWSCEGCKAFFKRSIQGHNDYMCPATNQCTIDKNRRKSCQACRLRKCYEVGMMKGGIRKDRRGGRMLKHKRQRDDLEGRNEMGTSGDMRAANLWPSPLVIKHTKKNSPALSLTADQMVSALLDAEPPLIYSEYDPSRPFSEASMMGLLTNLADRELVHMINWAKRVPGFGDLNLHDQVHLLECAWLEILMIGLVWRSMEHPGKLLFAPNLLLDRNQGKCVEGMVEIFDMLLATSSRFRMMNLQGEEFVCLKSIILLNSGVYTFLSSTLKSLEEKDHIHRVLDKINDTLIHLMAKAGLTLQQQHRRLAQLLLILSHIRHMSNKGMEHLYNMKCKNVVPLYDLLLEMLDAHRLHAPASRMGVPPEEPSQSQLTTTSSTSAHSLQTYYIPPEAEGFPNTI
Description: Binding affinity for rat estrogen receptor alpha

Estrogen receptor [2] = molecular target: T2, Estrogen receptor (Homo sapiens, UniProt Q92731+P03372); conditions: ishikawa
Description: Inhibitory concentration against estrogen-induced proliferation of Ishikawa uterine cells by 1 nM E2

Estrogen receptor [3] = molecular target: T2, Estrogen receptor; conditions: mcf7
Description: Half maximal inhibitory concentration against estrogen-induced proliferation of MCF-7 breast cells by 10 pM E2

Estrogen receptor beta = Estrogen receptor beta (Rattus norvegicus, UniProt Q62986)
Sequence of Estrogen receptor beta (Q62986 whole entry): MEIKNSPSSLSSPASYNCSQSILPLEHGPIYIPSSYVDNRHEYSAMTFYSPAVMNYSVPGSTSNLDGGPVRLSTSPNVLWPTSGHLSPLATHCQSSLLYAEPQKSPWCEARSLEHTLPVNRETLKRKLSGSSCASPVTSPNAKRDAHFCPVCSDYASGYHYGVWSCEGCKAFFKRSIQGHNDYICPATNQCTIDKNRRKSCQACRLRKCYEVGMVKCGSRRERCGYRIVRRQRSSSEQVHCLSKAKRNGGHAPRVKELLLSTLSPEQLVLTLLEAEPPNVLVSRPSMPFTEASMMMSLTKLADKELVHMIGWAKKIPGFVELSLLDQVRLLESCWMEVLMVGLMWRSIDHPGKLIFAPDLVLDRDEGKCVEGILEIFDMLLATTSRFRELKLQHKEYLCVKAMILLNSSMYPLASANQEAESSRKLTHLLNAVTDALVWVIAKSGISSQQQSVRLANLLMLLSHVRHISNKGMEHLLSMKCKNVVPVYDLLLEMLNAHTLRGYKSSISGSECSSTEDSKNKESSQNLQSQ
Description: Binding affinity for rat estrogen receptor beta

| Ki (Estrogen receptor [1]) | IC50 (Estrogen receptor [2]) | IC50 (Estrogen receptor [3]) | Ki (Estrogen receptor beta) | SMILES |
| --- | --- | --- | --- | --- |
| 0.25 nM | 3.18 nM | 0.34 nM | 0.3 nM | Cl.Oc1ccc2c(Oc3ccc(OCCN4CCCCC4)cc3)c(-c3ccc(F)cc3)ccc2c1 |
| 1.15 nM | 4.78 nM | 3.4 nM | 24.1 nM | CS(=O)(=O)c1ccc(-c2ccc3cc(O)ccc3c2Cc2ccc(OCCN3CCCCC3)cc2)cc1.Cl |

| SMILES | Ki (Estrogen receptor [1]) | IC50 (Estrogen receptor [2]) | IC50 (Estrogen receptor [3]) | Ki (Estrogen receptor beta) |
| --- | --- | --- | --- | --- |
| Cl.Oc1ccc(-c2ccc3cc(O)ccc3c2Cc2ccc(OCCN3CCCCC3)cc2)cc1 | 0.2 nM | 1.14 nM | 0.2 nM | 0.7 nM |
